# Assay results published in patent US8344163B2, “Nitrile compound and its use for control of arthropod pest” (Sumitomo Chemical Company, Limited, priority 2008, dated 2013).
# Test system: Blattalla germanica
# Test: Test Example 5: filter paper with sucrose bait, Blattalla germanica male imagoes
# Format: in vivo
# Conditions: 500 ppm active ingredient, 0.7 ml on filter paper; 2 male imagoes; after 6 days
# Protocol: A formulation of any one of the present compounds (1t), (1c), (3), (4), (7) and (8) obtained according to Formulation Example 16 was diluted with water to prepare a test solution having 500 ppm of the active ingredient.
# A filter paper having a diameter of 5.5 cm was spread on the bottom of a polyethylene cup having a diameter of 5.5 cm and 0.7 ml of the test solution was added dropwise onto the filter paper. As a bait, 30 mg of sucrose was uniformly placed on the filter paper. Into the polyethylene cup, 2 male imagoes of Blattalla germanica were released and the cup was sealed with a lid. After 6 days, the number of surviving or dead Blattalla germanica was counted and the death rate of the pest was calculated.
row,SMILES,pest death rate
1,CON=C1CCC(CC(C#N)(C#N)CCC(F)(F)F)CC1 (stereo not drawn) [(8)],100%
2,C#C[C@H]1CC[C@H](CC(C#N)(C#N)CCC(F)(F)F)CC1 [(1t)],100%
3,C#C[C@H]1CC[C@@H](CC(C#N)(C#N)CCC(F)(F)F)CC1 [(1c)],100%
4,C#CC12CCC(CC(C#N)(C#N)CCC(F)(F)F)CC1O2 (stereo not drawn) [(4)],100%
5,C#CC1(F)CCC(CCC(C#N)(C#N)CCC(F)(F)F)CC1 (stereo not drawn) [(7)],100%
6,C#CC1(F)CCC(CC(C#N)(C#N)CCC(F)(F)F)CC1 (stereo not drawn) [(3)],100%
